Experimental data published in publication PMC9863562, “Design, Synthesis, and Biological Evaluation of 2-Mercaptobenzoxazole Derivatives as Potential Multi-Kinase Inhibitors” (Pharmaceuticals, 2023).

Columns and labels:
[1] = system: HepG2 cells (hepatocellular carcinoma); assay: MTT cytotoxicity assay, HepG2; format: cell-based; settings: Homo sapiens, HepG2, 24 h, 24 h treatment, read-out: In Vitro Cytotoxicity IC50 HepG2
From the text: (§1) The in vitro cytotoxicity for the final target compounds, 4(a–d), 5(a–f), and 6(a–b), was preliminarily evaluated via the MTT colorimetric assay against a panel of four human cell lines, namely, the hepatocellular carcinoma (HepG2), mammary gland (MCF-7), breast cancer (MDA-MB-231) and epithelioid cervix carcinoma (HeLa).
(§2) The cytotoxicity of the target hybrids was examined by an MTT assay against HepG2, HeLa, MCF-7, and MDA-MB-231. At first, the RPMI-1640 medium with 10% fetal bovine serum was used to cultivate the cell lines. Then, antibiotics (penicillin (100 units/mL) and streptomycin (100 µg/mL)) were added in a 37 °C incubator in 5% CO2. The cell lines were seeded in a 96-well plate at a density of 1.0 × 10^4 cells/well at 37 °C under 5% CO2 for 48 h. After incubation, the cells were treated with various concentrations of the synthesized compounds and incubated for an additional 24 h. Following the drug treatment, 20 µL of 5 mg/mL MTT solution was added and incubated for 4 h. To dissolve the purple formazan that had formed, 100 µL dimethyl sulfoxide (DMSO) was added to each well. At a wavelength of 570 nm, the colorimetric assay was recorded and measured, using a plate reader BioTek EXL 800 (Agilent Technologies, Inc., Santa Clara, CA, USA). The percentage of relative cell viability was counted using the following formula (A570 of handled specimens/A570 of the unhandled specimen), multiplied by 100. The results of the cytotoxicity value were presented as the median growth inhibitory concentration (IC50) of the reagents compared to the control.

[2] = system: MCF-7 cells (mammary gland cancer); assay: MTT cytotoxicity assay, MCF-7; format: cell-based; settings: Homo sapiens, MCF7, 24 h treatment, read-out: In Vitro Cytotoxicity IC50 MCF-7
Protocol: (§3) After incubation, the cells were treated with various concentrations of the synthesized compounds and incubated for an additional 24 h. Following the drug treatment, 20 µL of 5 mg/mL MTT solution was added and incubated for 4 h. To dissolve the purple formazan that had formed, 100 µL dimethyl sulfoxide (DMSO) was added to each well. […] The percentage of relative cell viability was counted using the following formula (A570 of handled specimens/A570 of the unhandled specimen), multiplied by 100.

[3] = system: MDA-MB-231 cells (breast cancer); assay: MTT cytotoxicity assay, MDA-MB-231; format: cell-based; settings: Homo sapiens, 24 h treatment, read-out: In Vitro Cytotoxicity IC50 MDA-MB-231
Protocol: as §3

[4] = system: HeLa cells (epithelioid cervix carcinoma); assay: MTT cytotoxicity assay, HeLa; format: cell-based; settings: Homo sapiens, 24 h treatment, read-out: In Vitro Cytotoxicity IC50 Hela
Protocol: as §3

[5] = system: HepG2, MCF-7, MDA-MB-231 and HeLa cell lines; assay: MTT cytotoxicity assay, panel of four cell lines; format: cell-based; settings: Homo sapiens, range over HepG2, MCF-7, MDA-MB-231, HeLa, read-out: IC50 values, range over the tested cell lines
From the text: as §1, §2

SMILES	IC50 [1]	IC50 [2]	melting point	IC50 [3]	IC50 [4]	IC50 [5]
O=C(CSc1nc2ccccc2o1)NN=Cc1ccc(Cl)c(Cl)c1 (mixture of isomers) [Compound 4a, (E/Z)-N′-(3,4-dichlorobenzylidene)-2-(benzo[d]oxazol-2-ylthio)acetohydrazide]	81.2 ± 3.7 µM	74.2 ± 3.5 µM	193 to 195 °C	75.5 ± 3.6 µM	67.6 ± 3.4 µM	–
O=C(CSc1nc2ccccc2o1)NN=Cc1ccc(OC(F)(F)F)cc1 (mixture of isomers) [Compound 4b, (E/Z)-N′-(4-(trifluoromethoxy)benzylidene)-2-(benzo[d]oxazol-2-ylthio)acetohydrazide]	13.1 ± 1.1 µM	15.2 ± 1.2 µM	154 to 156 °C	9.72 ± 0.7 µM	19.3 ± 1.6 µM	–
N#Cc1ccc(C=NNC(=O)CSc2nc3ccccc3o2)cc1 (mixture of isomers) [Compound 4c, (E/Z)-N′-(4-cyanobenzylidene)-2-(benzo[d]oxazol-2-ylthio)acetohydrazide]	34.5 ± 2.2 µM	38.6 ± 2.5 µM	246 to 248 °C	21.1 ± 1.6 µM	35.2 ± 2.5 µM	–
COc1cc(C=NNC(=O)CSc2nc3ccccc3o2)ccc1O (mixture of isomers) [Compound 4d, (E/Z)-N′-(4-hydroxy-3-methoxybenzylidene)-2-(benzo[d]oxazol-2-ylthio)acetohydrazide]	9.37 ± 0.7 µM	11.1 ± 0.9 µM	150 to 153 °C	4.93 ± 0.2 µM	12.9 ± 0.9 µM	2.14 to 12.9 µM
O=C(CSc1nc2ccccc2o1)NN=Cc1cccs1 (mixture of isomers) [Compound 6a, (E/Z)-2-(benzo[d]oxazol-2-ylthio)-N′-((thiophen-2-yl)methylene)acetohydrazide]	26.4 ± 1.8 µM	42.9 ± 2.8 µM	218 to 221 °C	30.8 ± 2.2 µM	46.4 ± 2.7 µM	–
O=C(CSc1nc2ccccc2o1)NN=C1C(=O)Nc2ccccc21 [Compound 5a, (E/Z)-2-(benzo[d]oxazol-2-ylthio)-N′-(2-oxoindolin-3-ylidene)acetohydrazide]	18 ± 1.3 µM	23.5 ± 1.8 µM	223 to 225 °C	14.6 ± 1.2 µM	28.9 ± 2 µM	–
Cc1ccc2c(c1)C(=NNC(=O)CSc1nc3ccccc3o1)C(=O)N2 [Compound 5b, (E/Z)-2-(benzo[d]oxazol-2-ylthio)-N′-(5-methyl-2-oxoindolin-3-ylidene)acetohydrazide]	41.7 ± 2.4 µM	27.4 ± 2 µM	230 to 233 °C	36.2 ± 2.4 µM	31.5 ± 2.3 µM	–
O=C(CSc1nc2ccccc2o1)NN=C1C(=O)Nc2ccc([N+](=O)[O-])cc21 [Compound 5c, (E/Z)-2-(benzo[d]oxazol-2-ylthio)-N′-(5-nitro-2-oxoindolin-3-ylidene)acetohydrazide]	56.2 ± 2.9 µM	48.3 ± 2.8 µM	165 to 167 °C	62.4 ± 3.1 µM	50.6 ± 2.9 µM	–
COc1ccc2c(c1)C(=NNC(=O)CSc1nc3ccccc3o1)C(=O)N2 [Compound 5d, (E/Z)-2-(benzo[d]oxazol-2-ylthio)-N′-(5-methoxy-2-oxoindolin-3-ylidene)acetohydrazide]	10.5 ± 0.9 µM	7.58 ± 0.6 µM	145 to 147 °C	8.44 ± 0.6 µM	6.27 ± 0.7 µM	2.14 to 12.9 µM
O=C(CSc1nc2ccccc2o1)NN=C1C(=O)Nc2ccc(Cl)cc21 [Compound 5e, (E/Z)-2-(benzo[d]oxazol-2-ylthio)-N′-(5-chloro-2-oxoindolin-3-ylidene)acetohydrazide]	45.2 ± 2.7 µM	53 ± 3.1 µM	264 to 267 °C	51.5 ± 2.8 µM	58.4 ± 3.2 µM	–
O=C(CSc1nc2ccccc2o1)NN=C1C(=O)Nc2ccc(F)cc21 [Compound 5f, (E/Z)-2-(benzo[d]oxazol-2-ylthio)-N′-(5-fluoro-2-oxoindolin-3-ylidene)acetohydrazide]	63.7 ± 3.2 µM	70.3 ± 3.3 µM	225 to 227 °C	68.1 ± 3.5 µM	59.2 ± 3.1 µM	–
